Assay results: patent US20250302775A1, “METHODS FOR THE TREATMENT OF DEPRESSION” (Autobahn Therapeutics, Inc., priority 2022, published 2025)
One block for each molecule: values may come before it.

Assays:
[1] = molecular target: T1, FAAH (Mus musculus, UniProt O08914); test: tissue distribution in mice after co-dosing ABX-002 with or without PFI or GFI; type: in vivo; details: co-dosing with PFI or GFI, mice
T1 construct: from tissue; host or cells: living mice (plasma, liver, brain)
T1 sequence (O08914 1-579): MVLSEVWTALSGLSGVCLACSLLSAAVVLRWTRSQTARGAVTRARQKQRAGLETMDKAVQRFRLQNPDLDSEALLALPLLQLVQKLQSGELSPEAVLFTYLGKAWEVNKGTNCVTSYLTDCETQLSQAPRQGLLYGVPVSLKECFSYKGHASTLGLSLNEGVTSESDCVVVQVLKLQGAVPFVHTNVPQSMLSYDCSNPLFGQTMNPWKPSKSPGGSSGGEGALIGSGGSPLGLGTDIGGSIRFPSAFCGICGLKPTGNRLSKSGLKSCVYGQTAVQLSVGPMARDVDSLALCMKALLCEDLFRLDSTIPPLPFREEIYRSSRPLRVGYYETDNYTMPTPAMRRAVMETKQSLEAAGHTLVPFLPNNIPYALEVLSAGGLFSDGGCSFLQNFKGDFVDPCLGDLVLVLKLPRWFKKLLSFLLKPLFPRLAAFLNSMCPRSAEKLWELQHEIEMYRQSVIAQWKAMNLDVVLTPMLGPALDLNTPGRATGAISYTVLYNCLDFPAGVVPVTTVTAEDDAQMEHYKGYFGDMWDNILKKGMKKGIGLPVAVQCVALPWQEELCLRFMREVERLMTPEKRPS
Experimental: The ability of globally-penetrant and peripherally-restricted FAAH inhibitors (GFI & PFI, respectively) to alter distribution of ABX-002 and ABX-002A was assessed.
Table 5 depicts the inhibition of active metabolite (LL-650177 or PF-044578454) in AUC in the plasma, liver, and brain after prodrug (ABX-002) co-dosing. Tissue distribution studies in mice confirm global & peripheral inhibition of FAAH.

[2] = molecular target: T2, recombinant human FAAH (rhFAAH) (Homo sapiens, UniProt O00519); test: FAAH substrate evaluation: formation of acid metabolite; type: biochemical; details: 0.5 ng/μL rhFAAH, 1 μM test compound, room temperature, pH 8.0, 0-60 minutes
T2 construct: purchased Cayman Chemical (Ann Arbor, MI, USA)
T2 sequence (O00519 1-579): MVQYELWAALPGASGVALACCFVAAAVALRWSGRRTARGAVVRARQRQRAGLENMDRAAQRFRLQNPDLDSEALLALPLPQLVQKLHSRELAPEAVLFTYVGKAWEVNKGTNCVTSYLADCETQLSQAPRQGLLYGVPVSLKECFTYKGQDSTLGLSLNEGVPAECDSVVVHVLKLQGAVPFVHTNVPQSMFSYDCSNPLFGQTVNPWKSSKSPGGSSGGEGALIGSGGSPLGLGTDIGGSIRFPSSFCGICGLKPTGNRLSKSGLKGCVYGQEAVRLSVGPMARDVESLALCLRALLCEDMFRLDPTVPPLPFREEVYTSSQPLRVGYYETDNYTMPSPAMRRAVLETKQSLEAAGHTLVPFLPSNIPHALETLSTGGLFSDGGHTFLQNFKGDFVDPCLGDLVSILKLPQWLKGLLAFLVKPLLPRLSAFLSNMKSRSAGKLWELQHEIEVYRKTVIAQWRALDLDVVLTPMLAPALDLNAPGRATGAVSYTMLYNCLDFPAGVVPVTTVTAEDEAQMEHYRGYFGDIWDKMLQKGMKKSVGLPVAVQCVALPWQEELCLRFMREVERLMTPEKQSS
Experimental: Purified recombinant human FAAH (rhFAAH) was purchased from Cayman Chemical (Ann Arbor, MI, USA). The total volume for each incubation was 400 μL containing a final 0.5 ng/μL rhFAAH, 1 μM test compound, 1.25% ethanol or 1 μM PF-3845 (FAAH inhibitor), and 0.1% bovine serum albumin in Tris-EDTA buffer at pH 8.0). The positive control was LL-341001. The incubation was conducted at the room temperature. At 0, 5, 15, 30 and 60 minutes, an aliquot of 30 μL reaction mixtures was removed and mixed with 300 μL acetonitrile containing 5 ng/mL terfenadine and 10 ng/mL tolbutamide as internal standards to quench the reaction. The resulting mixture was centrifuged at 4000 rpm, 4° C. for 15 minutes, and 100 μL supernatant was ready for LC-MS/MS analysis to measure the formation of acid metabolite.
Acquity Ultra Performance LC system from Waters was used for sample analysis. The chromatography was performed on a reverse phase Kinetex 2.6 μm C18 column, 2.1×30 mm, 100 Å. The mobile phase A comprised of 0.1% formic acid in water and mobile phase B comprised of 0.1% formic acid in acetonitrile with a 2-min run time at the flow rate of 0.8 mL/min for the acid metabolite from positive control or a 1.5 min run time at the flow rate of 0.9 mL/min for the acid metabolite of test compounds. The mass spectrometer (API-5500 and API Q Trap 4000 Applied Biosystems/MDS SCIEX Instruments, Framingham, MA, USA) was operated under ESI positive or negative ion MRM mode.
The formation of acid metabolite was monitored and quantified using one calibration point of 1 μM. The observed rate constant (ke) for the acid metabolite formation was calculated by plotting the metabolite concentration versus time of incubation with the slope being ke and is shown in Table 1.

prodrug levels in plasma, liver and brain with FAAH inhibition [1]: did not change or slightly increased
ke (observed rate constant for the acid metabolite formation) [2]: A (A = ke is more than or equal to 0.1)
SMILES: CNC(=O)COc1cc(Cl)c(Cc2ccc(O)c(C(C)C)c2)c(Cl)c1 [Compound 1]

ke (observed rate constant for the acid metabolite formation) [2]: A (A = ke is more than or equal to 0.1)
SMILES: CC(C)c1c(O)ccc(Cc2c(Cl)cc(OCC(=O)NN(C)C)cc2Cl)c1F [Compound 45]

ke (observed rate constant for the acid metabolite formation) [2]: A (A = ke is more than or equal to 0.1)
SMILES: COc1ccc(NC(=O)COc2cc(Cl)c(Cc3ccc(O)c(C(C)C)c3)c(Cl)c2)cn1 [Compound 101]

ke (observed rate constant for the acid metabolite formation) [2]: A (A = ke is more than or equal to 0.1)
SMILES: CC(C)c1cc(Cc2c(Cl)cc(OCC(=O)Nc3cnccn3)cc2Cl)ccc1O [Compound 102]

ke (observed rate constant for the acid metabolite formation) [2]: A (A = ke is more than or equal to 0.1)
SMILES: Cc1noc(NC(=O)COc2cc(Cl)c(Cc3ccc(O)c(C(C)C)c3)c(Cl)c2)c1C [Compound 103]

ke (observed rate constant for the acid metabolite formation) [2]: A (A = ke is more than or equal to 0.1)
SMILES: CC(C)c1cc(Cc2c(Cl)cc(OCC(=O)Nc3cccnn3)cc2Cl)ccc1O [Compound 104]

ke (observed rate constant for the acid metabolite formation) [2]: C (C = ke is 0)
SMILES: CC(C)c1cc(Cc2c(Cl)cc(OCC(=O)NC3CCCCC3)cc2Cl)ccc1O [Compound 105]

ke (observed rate constant for the acid metabolite formation) [2]: A (A = ke is more than or equal to 0.1)
SMILES: CC(C)c1c(O)ccc(Cc2c(Cl)cc(OCC(=O)Nc3cncnc3)cc2Cl)c1F [Compound 109]

ke (observed rate constant for the acid metabolite formation) [2]: A (A = ke is more than or equal to 0.1)
SMILES: CC(C)c1c(O)ccc(Cc2c(Cl)cc(OCC(=O)Nc3ccncn3)cc2Cl)c1F [Compound 110]

ke (observed rate constant for the acid metabolite formation) [2]: A (A = ke is more than or equal to 0.1)
SMILES: CC(C)c1cc(Cc2c(Cl)cc(OCC(=O)N[C@@H]3C[C@@H]3F)cc2Cl)ccc1O [Compound 111]

ke (observed rate constant for the acid metabolite formation) [2]: A (A = ke is more than or equal to 0.1)
SMILES: CC(C)c1cc(Cc2c(Cl)cc(OCC(=O)NCCCF)cc2Cl)ccc1O [Compound 112]

ke (observed rate constant for the acid metabolite formation) [2]: A (A = ke is more than or equal to 0.1)
SMILES: COc1ccc(NC(=O)COc2cc(Cl)c(Cc3ccc(O)c(C(C)C)c3)c(Cl)c2)nn1 [Compound 113]

ke (observed rate constant for the acid metabolite formation) [2]: A (A = ke is more than or equal to 0.1)
SMILES: CC(C)c1cc(Cc2c(Cl)cc(OCC(=O)Nc3cccnc3)cc2Cl)ccc1O [Compound 114]

ke (observed rate constant for the acid metabolite formation) [2]: A (A = ke is more than or equal to 0.1)
SMILES: CC(C)c1cc(Cc2c(Cl)cc(OCC(=O)Nc3ccnnc3)cc2Cl)ccc1O [Compound 116]

ke (observed rate constant for the acid metabolite formation) [2]: C (C = ke is 0)
SMILES: CC(C)c1cc(Cc2c(Cl)cc(OCC(=O)NC(C)(C)C)cc2Cl)ccc1O [Compound 119]

ke (observed rate constant for the acid metabolite formation) [2]: C (C = ke is 0)
SMILES: CC(C)CN(C)C(=O)COc1cc(Cl)c(Cc2ccc(O)c(C(C)C)c2)c(Cl)c1 [Compound 120]

ke (observed rate constant for the acid metabolite formation) [2]: C (C = ke is 0)
SMILES: CC(C)CNC(=O)COc1cc(Cl)c(Cc2ccc(O)c(C(C)C)c2)c(Cl)c1 [Compound 121]

ke (observed rate constant for the acid metabolite formation) [2]: A (A = ke is more than or equal to 0.1)
SMILES: CC(C)NC(=O)COc1cc(Cl)c(Cc2ccc(O)c(C(C)C)c2)c(Cl)c1 [Compound 126]

ke (observed rate constant for the acid metabolite formation) [2]: A (A = ke is more than or equal to 0.1)
SMILES: CC(C)c1cc(Cc2c(Cl)cc(OCC(=O)N3CCOCC3)cc2Cl)ccc1O [Compound 133]

The next lines start with the molecule.

SMILES: CON(C)C(=O)COc1cc(Cl)c(Cc2ccc(O)c(C(C)C)c2F)c(Cl)c1 [Compound 44]
ke (observed rate constant for the acid metabolite formation) [2]: A (A = ke is more than or equal to 0.1)

SMILES: CC#CCNC(=O)COc1cc(Cl)c(Cc2ccc(O)c(C(C)C)c2)c(Cl)c1 [Compound 106]
ke (observed rate constant for the acid metabolite formation) [2]: B (B = ke is less than 0.1 and more than 0)

SMILES: CC#CCN(C)C(=O)COc1cc(Cl)c(Cc2ccc(O)c(C(C)C)c2)c(Cl)c1 [Compound 107]
ke (observed rate constant for the acid metabolite formation) [2]: B (B = ke is less than 0.1 and more than 0)

SMILES: CC(C)c1cc(Cc2c(Cl)cc(OCC(=O)N(C)N(C)C)cc2Cl)ccc1O [Compound 108]
ke (observed rate constant for the acid metabolite formation) [2]: B (B = ke is less than 0.1 and more than 0)

SMILES: CC(C)c1cc(Cc2c(Cl)cc(OCC(=O)N3CCCC3)cc2Cl)ccc1O [Compound 117]
ke (observed rate constant for the acid metabolite formation) [2]: B (B = ke is less than 0.1 and more than 0)

SMILES: CC(C)c1cc(Cc2c(Cl)cc(OCC(=O)N3CCC3)cc2Cl)ccc1O [Compound 118]
ke (observed rate constant for the acid metabolite formation) [2]: B (B = ke is less than 0.1 and more than 0)

SMILES: CC(C)c1cc(Cc2c(Cl)cc(OCC(=O)N(C)C(C)C)cc2Cl)ccc1O [Compound 122]
ke (observed rate constant for the acid metabolite formation) [2]: B (B = ke is less than 0.1 and more than 0)

SMILES: CC(C)c1cc(Cc2c(Cl)cc(OCC(=O)N(C)CCO)cc2Cl)ccc1O [Compound 123]
ke (observed rate constant for the acid metabolite formation) [2]: B (B = ke is less than 0.1 and more than 0)

SMILES: CNN(C)C(=O)COc1cc(Cl)c(Cc2ccc(O)c(C(C)C)c2)c(Cl)c1 [Compound 124]
ke (observed rate constant for the acid metabolite formation) [2]: B (B = ke is less than 0.1 and more than 0)

SMILES: CC(C)c1cc(Cc2c(Cl)cc(OCC(=O)N(C)CCF)cc2Cl)ccc1O [Compound 125]
ke (observed rate constant for the acid metabolite formation) [2]: B (B = ke is less than 0.1 and more than 0)

SMILES: CC(C)c1cc(Cc2c(Cl)cc(OCC(=O)NC3CCC3)cc2Cl)ccc1O [Compound 127]
ke (observed rate constant for the acid metabolite formation) [2]: B (B = ke is less than 0.1 and more than 0)

SMILES: C=CCN(C)C(=O)COc1cc(Cl)c(Cc2ccc(O)c(C(C)C)c2)c(Cl)c1 [Compound 128]
ke (observed rate constant for the acid metabolite formation) [2]: B (B = ke is less than 0.1 and more than 0)

SMILES: CCCN(C)C(=O)COc1cc(Cl)c(Cc2ccc(O)c(C(C)C)c2)c(Cl)c1 [Compound 129]
ke (observed rate constant for the acid metabolite formation) [2]: B (B = ke is less than 0.1 and more than 0)

SMILES: CCN(C)C(=O)COc1cc(Cl)c(Cc2ccc(O)c(C(C)C)c2)c(Cl)c1 [Compound 130]
ke (observed rate constant for the acid metabolite formation) [2]: B (B = ke is less than 0.1 and more than 0)

SMILES: CC(C)c1cc(Cc2c(Cl)cc(OCC(=O)N(C)CC(F)(F)F)cc2Cl)ccc1O [Compound 131]
ke (observed rate constant for the acid metabolite formation) [2]: B (B = ke is less than 0.1 and more than 0)

SMILES: CC(C)c1cc(Cc2c(Cl)cc(OCC(=O)N(C)CC(F)F)cc2Cl)ccc1O [Compound 132]
ke (observed rate constant for the acid metabolite formation) [2]: B (B = ke is less than 0.1 and more than 0)
